BigSolDB 2.1

NCCCCCC(=O)O
solubility (mole fraction)
Details | 283.15 K | 288.15 K | 293.15 K | 298.15 K | 303.15 K | 308.15 K | 313.15 K | 318.15 K | 323.15 K
in ethyl acetate | 0.000146 | 0.00016 | 0.000174 | 0.000188 | 0.0002 | 0.000221 | 0.000241 | 0.000262 | 0.000289
in isopropanol | 7.7e-05 | 8.1e-05 | 9.2e-05 | 0.000108 | 0.000123 | 0.000142 | 0.000162 | 0.000181 | 0.0002
in methyl acetate | 0.000119 | 0.000129 | 0.00014 | 0.000146 | 0.000154 | 0.000161 | 0.000166 | 0.00017 | 0.000172
in water | 0.118 | 0.126 | 0.13 | 0.137 | 0.145 | 0.152 | 0.155 | 0.16 | 0.167
